Here are results for one compound from patent publication US20020155172A1, “Methods and compounds for decreasing cell toxicity or death” (priority 2000, published 2002).

One data set relates to cells; primary neurons. The data set is described as follows: Compound toxicity in cells. It is filed as cell-based.
A further data set has as its system R62 mice. In words: Dyskinesia of the hindlimbs, gait and stride length (ink test). It is filed as in vivo. The source says: FIG. 10D is a set of scanned images of the effect of Congo red or PBS (vehicle) on motor coordination, as assessed by the “ink” test in HD transgenic mice three weeks after Congo red or vehicle treatment. The “ink” test was used to determine the changes in stride length and the overlap of steps characteristic of movement disorders using red and green food coloring to mark the front and back paws, respectively. Changes in stride length of individual mice from one set of paws (brackets) and the differences in the step overlapping patterns (open arrows) three weeks after vehicle or Congo red treatment were assayed.
FIG. 10E is a table of the quantification of changes in stride length in HD transgenic mice treated with either Congo red or PBS (vehicle) (#, n=5 in each cohort), assessed as described in FIG. 10D.
In addition, the ability of Congo red to inhibit the formation as well as to disrupt preformed polyglutamine oligomers allowed us to examine the role of polyglutamine aggregates in neuronal dysfunction and degeneration characteristic of polyglutamine expansion diseases. In these studies, we used the animal model of Huntington's disease (R62), which expresses the truncated form of huntingtin with 139 CAG repeats Mangiarini et al. (supra). We took advantage of our finding that in addition to inhibiting polyglutamine oligomerization, Congo red also disrupts pre-formed oligomers, thus allowing assessment of the impact of Congo red on disease progression after formation of polyglutamine aggregates and the onset of symptoms. R62 transgenic mice and CBAxC57B1/6 F1 wild type littermates were obtained from Jackson Laboratories (Bar Harbor, Me.) at the age of five weeks. […]
The initial abnormal neurological signs of R62 mice include dyskinesia of the hindlimbs when mice were suspended by the tail, and irregular gait. […] The effect of Congo red on motor performance in R62 mice was also assessed by rotarod studies. […]

A further data set has as its system R62 transgenic mice. In words: Rotorod, muscle strength, first study. Conditions: R62Tg mice; 10 rpm, maximum 60 seconds; versus R62Tg without Congo red. It is filed as in vivo. The procedure:
FIG. 9 is a graph showing the effect of intraperitoneal injection of Congo red on the motor performance in the mouse model of Huntington's disease (R62). Wild type mice or R62 transgenic mice carrying a polyglutamine repeat (R62Tg) were injected with either 0.5 ml of 1 mg/ml Congo red in phosphate buffered saline (PBS) or PBS alone and tested for their muscle strength by measuring their ability to remain on the rotorod at 10 rpm for a maximum period of 60 seconds.
Transgenic R62 mice that express the human Huntington's disease gene (carrying a 139-157 CAG repeat; Mangiarini et al., Cell 87:493-506, 1996; Carter et al., J. Neurosci. 19:3248-3257, 1999; and Levine et al., J. Neurosci. Res. 58:515-532, 1999) were used to examine the effects of Congo red on cell death or toxicity. […]
The latter procedure involved administration of 0.25 μl of the drug (1 mg/ml in 0.4% DMSO) per hour, for a period of at least 28 days. […] Polyglutamine inclusions were readily detected at the beginning of treatment. The effect of Congo red on the polyglutamine-induced toxicity in muscle strength in the animal model R62 was quantified by the use of a rotorod.
The mice were trained every day for a week after which time the latency to fall from a rotorod at a speed of 10 rpm was measured for each mouse, with a maximum time of 60 seconds per trial, as described by Carter et al., (J. Neurosci. 19:3248-3257, 1999). […]
A general note: Falling from the rotarod earlier than controls is read as motor impairment.

Setting [1] is: ink test three weeks after treatment.

For the compound `Nc1c(/N=N/c2ccc(-c3ccc(/N=N/c4cc(S(=O)(=O)O)c5ccccc5c4N)cc3)cc2)cc(S(=O)(=O)O)c2ccccc12` [Congo red, diphenyldiazo-bis-alpha-napthylaminesulfonate], the “compound toxicity in cells” value with cells; primary neurons is recorded as “not toxic even to primary neurons”. Also, the “dyskinesia of the hindlimbs” value in the data set with R62 mice is on record as “significantly inhibited the dyskinesia of the hindlimbs”. In the data set on R62 mice (setting [1]), the gait result is listed as “preserved the normal gait”; the stride length result is “preserved the normal gait (FIG. 10D) and stride length”. The “ability to remain on the rotorod” value in the data set with R62 transgenic mice was “exhibited a better ability to remain on the rotorod”.
